Measured values published in the NIST ThermoML archive (doi:10.1021/je300199a).
“And” between values parts separate entries of the source, which are not always exact repeats. Identical values can stand only once.

Details: Calculated from knudsen effusion weight loss

O=[Si] [silicon monooxide]
Crystal
Details | vapor or sublimation pressure [kPa]
1211 K | 3e-06
1229 K | 1.6e-06
1249 K | 8e-06
1267 K | 1.3e-05
1281 K | 2.2e-05
1300 K | 4e-05
1314 K | 6e-05
1329 K | 9e-05
1343 K | 0.00013
1356 K | 0.0002
1370 K | 0.00028
1384 K | 0.0004
1397 K | 0.0005
1409 K | 0.0007
1421 K | 0.001
1432 K | 0.0013
1443 K | 0.0017
1454 K | 0.0023
1463 K | 0.0029
1474 K | 0.0036
1484 K | 0.005
1494 K | 0.006
1503 K | 0.007
1512 K | 0.009
1522 K | 0.011
1530 K | 0.013
1539 K | 0.015
1547 K | 0.018
1555 K | 0.021
1565 K | 0.024

[Cu] [copper]
Details | vapor or sublimation pressure
1211 K, Crystal | 3.2e-06 kPa
1229 K, Crystal | 2.6e-06 kPa
1249 K, Crystal | 6.5e-06 kPa and 5.9e-06 kPa
1267 K, Crystal | 1e-05 kPa
1281 K, Crystal | 1.4e-05 kPa and 1.5e-05 kPa
1300 K, Crystal | 2.1e-05 kPa and 1.9e-05 kPa
1314 K, Crystal | 2.8e-05 kPa and 2.7e-05 kPa
1329 K, Crystal | 4.5e-05 kPa and 3.8e-05 kPa
1343 K, Crystal | 5.4e-05 kPa and 5.1e-05 kPa
1356 K, Crystal | 7e-05 kPa
1370 K, Liquid | 9e-05 kPa
1379 K, Liquid | 0.00013 kPa
1384 K, Liquid | 0.00012 kPa
1388 K, Liquid | 0.00014 kPa
1397 K, Liquid | 0.00015 kPa
1409 K, Liquid | 0.00018 kPa and 0.00019 kPa
1421 K, Liquid | 0.00023 kPa
1432 K, Liquid | 0.00027 kPa and 0.00028 kPa
1434 K, Liquid | 0.00033 kPa
1443 K, Liquid | 0.00034 kPa
1454 K, Liquid | 0.0004 kPa and 0.00041 kPa
1463 K, Liquid | 0.00047 kPa and 0.00049 kPa
1474 K, Liquid | 0.00055 kPa and 0.00057 kPa
1484 K, Liquid | 0.00065 kPa and 0.0007 kPa
1494 K, Liquid | 0.0007 kPa and 0.0008 kPa
1503 K, Liquid | 0.0008 kPa and 0.0009 kPa
1512 K, Liquid | 0.0008 kPa and 0.0011 kPa
1522 K, Liquid | 0.0013 kPa and 0.0012 kPa
1530 K, Liquid | 0.0015 kPa and 0.0014 kPa
1539 K, Liquid | 0.0016 kPa
1547 K, Liquid | 0.0018 kPa and 0.0019 kPa
1555 K, Liquid | 0.0021 kPa
1565 K, Liquid | 0.0023 kPa and 0.0024 kPa and 0.0027 kPa
1572 K, Liquid | 0.0026 kPa and 0.0028 kPa and 0.0031 kPa
1581 K, Liquid | 0.0029 kPa and 0.0031 kPa and 0.0035 kPa
1588 K, Liquid | 0.0031 kPa and 0.0036 kPa and 0.004 kPa
1596 K, Liquid | 0.0038 kPa and 0.0041 kPa and 0.0045 kPa
1604 K, Liquid | 0.0039 kPa and 0.0046 kPa and 0.005 kPa
1611 K, Liquid | 0.0042 kPa and 0.0052 kPa and 0.0055 kPa
1619 K, Liquid | 0.0046 kPa and 0.0058 kPa and 0.006 kPa
1628 K, Liquid | 0.005 kPa and 0.0066 kPa
